From US6660910B1, “Selection marker” (Syngenta Mogen B.V., priority 1997, dated 2003)

Assays:
[1] = system: stem segments of Solanum tuberosum cv. Kardal; experiment: Transformation of potato stem segments with selection on cyanamide or kanamycin; format: cell-based
Experimental: Described below is the method used for transformation of stem segments of Solanum tuberosum cv. Kardal using Agrobacterium tumefaciens. Nodal explants from in vitro grown potato plants were used 3 to 8 weeks after transfer. The plants were grown on Multiplication Medium (MUM) under a 16 h light period (1700 lux) at 24° C. and a 8 h dark period at 21° C. (The various media can be found in Table 2). Stem segments of approximately 5 mm were cut on sterile filter paper soaked with Washing Medium (WAM) and collected in a flask containing Washing Medium. For approximately 300 explants the Washing Medium was replaced by Pre cultivation Medium (PRM). The flasks were cultured at 80 rpm at the same culture conditions as described above for approximately 24 h. All binary vectors used in this study contained the nptII gene as a plant selectable marker and the nptIII as bacterial selectable marker. Plasmid pMOG410 additionally harbored a chimeric gus gene containing an intron (Vancanneyt et al. Mol. Gen. Genet., 220, 245-250, 1990). Plasmid pMOG1156 additionally harbored the gus gene and the chimeric cah gene encoding cyanamide hydratase. Plasmid pMOG874 additionally harbored the cah gene. Plasmids were maintained in E.coli and A. tumefaciens under kanamycin selection.
The Agrobacterium strain used in this study harbored a rifampicin selection marker in a C58 chromosomal background. The construction of the helper strain EHA105 is described by Hood et al. (1993), Transg. Res. 2, 208-218.
Agrobacteria were grown overnight in LB medium with antibiotics (rifampicin 20 mg/l, kanamycin 100 mg/l). The overnight culture was diluted to OD600=0.1 and grown to OD600=0.3 in LB without antibiotics in approximately 2 h time. Bacterial suspensions were centrifuged at 1600×g for 15 minutes at room temperature. Bacteria were resuspended in Washing Medium and used for cocultivation experiments. The Pre cultivation Medium was removed from the flasks and replaced by the Agrobacterium suspension. The flasks were incubated for 20 minutes after which the explants were rinsed twice with Washing Medium. The explants were dried on sterile filter paper and incubated for 48 h on plates containing Cocultivation Medium (COM). Then, the explants were transferred to Post cultivation Medium (POM) and incubated for 72 h. The explants were then transferred to Shoot inducing Medium (SIM) containing several concentrations cyanamide or kanamycin. After two weeks the explants were subcultured on the same medium and approximately three weeks later the explants were placed on Shoot elongation Medium (SEM) containing cyanamide or kanamycin as mentioned above. When shoots were large enough to cut they were transferred to Root inducing Medium (RIM). Shoots that were able to root were then transferred to Root inducing Medium containing 50 mg/l cyanamide or 30 mg/l kanamycin. Simultaneously the transgenic nature of the shoots was determined by testing leaflets of the rooted shoots for expression of the gus gene using a histochemical GUS assay. It appeared that for pMOG1156 rooting of transgenic shoots on medium containing cyanamide was completely correlated with expression of the gus gene.

[2] = system: cotyledons of Lycopersicon esculentum cv. Money Maker; experiment: Transformation of tomato cotyledon explants with selection on cyanamide or kanamycin; format: cell-based
Experimental: Described below is the method used for transformation of cotyledons of Lycopersicon esculentum cv. Money Maker using Agrobacterium tumefaciens. The binary vectors and Agrobacteria strains for this transformation method are identical to those described above. Tomato seedlings were germinated on Germination Medium (GEM) under a 16 h light period (1700 lux) at 24° C. and a 8 h dark period at 21° C. (The contents of the various media can be found in Table 4). Cotyledon explants of 5 to 7 day old seedlings were cut on sterile filter paper soaked with Washing Medium (WAM) and placed on plates containing Cocultivation Medium (COM). The plates, each containing approximately 50 explants, were incubated overnight under the same conditions as described above.
The pre incubated explants were carefully submerged in the Agrobacterium inoculum for 20 minutes.
The explants were then blotted dry on sterile filter paper and incubated for 48 h on the second set of Cocultivation plates. In procession the explants were incubated for 72 h on plates containing Postcultivation Medium (POM) after which the explants were transferred to Shoot inducing Medium (SIM) containing several concentrations of cyanamide or kanamycin. Every three weeks the explants were subcultured on the same medium. After approximately 8-12 weeks shoots were excised and placed on Root inducing Medium (RIM). Shoots that were able to root were then transferred to Root inducing Medium containing 50 mg/l cyanamide or 30 mg/l kanamycin. Simultaneously leaflets of the rooted shoots were tested for expression of the gus gene in a histochemical GUS assay.

[3] = pMOG410 (gus-nptII), Cyanamide 20 mg/l during regeneration, 62 inoculated explants
[4] = pMOG410 (gus-nptII), Cyanamide 30 mg/l during regeneration, 62 inoculated explants
[5] = pMOG410 (gus-nptII), Cyanamide 40 mg/l during regeneration, 62 inoculated explants
[6] = pMOG1156 (cah-gus-nptII), Cyanamide 20 mg/l during regeneration, 48 inoculated explants
[7] = pMOG1156 (cah-gus-nptII), Cyanamide 30 mg/l during regeneration, 48 inoculated explants
[8] = pMOG1156 (cah-gus-nptII), Cyanamide 40 mg/l during regeneration, 48 inoculated explants
[9] = pMOG410 (gus-nptII), Cyanamide 20 mg/l during regeneration, 30 inoculated explants
[10] = pMOG410 (gus-nptII), Cyanamide 30 mg/l during regeneration, 30 inoculated explants
[11] = pMOG410 (gus-nptII), Cyanamide 40 mg/l during regeneration, 30 inoculated explants
[12] = pMOG1156 (gus-nptII-cah), Cyanamide 20 mg/l during regeneration, 30 inoculated explants
[13] = pMOG1156 (gus-nptII-cah), Cyanamide 30 mg/l during regeneration, 30 inoculated explants
[14] = pMOG1156 (gus-nptII-cah), Cyanamide 40 mg/l during regeneration, 30 inoculated explants
[15] = pMOG410 (gus-nptII), Kanamycin 50 mg/l during regeneration, 58 inoculated explants
[16] = pMOG1156 (cah-gus-nptII), Kanamycin 50 mg/l during regeneration, 48 inoculated explants
[17] = pMOG410 (gus-nptII), Kanamycin 100 mg/l during regeneration, 30 inoculated explants
[18] = pMOG1156 (gus-nptII-cah), Kanamycin 100 mg/l during regeneration, 30 inoculated explants

SMILES: N#CN [Cyanamide]
- No. of excised shoots [1, 3]: 48
- No. of gus + shoots [1, 3]: 0
- No. of rooting shoots ([1]; pMOG410 (gus-nptII), Cyanamide 20 mg/l during regeneration, 62 inoculated explants, rooting medium 50 mg/l cyanamide): 0
- No. of excised shoots [1, 4]: 10
- No. of gus + shoots [1, 4]: 0
- No. of rooting shoots ([1]; pMOG410 (gus-nptII), Cyanamide 30 mg/l during regeneration, 62 inoculated explants, rooting medium 50 mg/l cyanamide): 0
- No. of excised shoots [1, 5]: 0
- No. of gus + shoots [1, 5]: 0
- No. of rooting shoots ([1]; pMOG410 (gus-nptII), Cyanamide 40 mg/l during regeneration, 62 inoculated explants, rooting medium 50 mg/l cyanamide): 0
- No. of excised shoots ([1]; pMOG874 (cah-nptII), Cyanamide 20 mg/l during regeneration, 58 inoculated explants): 81
- No. of rooting shoots ([1]; pMOG874 (cah-nptII), Cyanamide 20 mg/l during regeneration, 58 inoculated explants, rooting medium 50 mg/l cyanamide): 2
- No. of excised shoots ([1]; pMOG874 (cah-nptII), Cyanamide 30 mg/l during regeneration, 58 inoculated explants): 40
- No. of rooting shoots ([1]; pMOG874 (cah-nptII), Cyanamide 30 mg/l during regeneration, 58 inoculated explants, rooting medium 50 mg/l cyanamide): 8
- No. of excised shoots ([1]; pMOG874 (cah-nptII), Cyanamide 40 mg/l during regeneration, 58 inoculated explants): 10
- No. of rooting shoots ([1]; pMOG874 (cah-nptII), Cyanamide 40 mg/l during regeneration, 58 inoculated explants, rooting medium 50 mg/l cyanamide): 1
- No. of excised shoots [1, 6]: 56
- No. of gus + shoots [1, 6]: 6
- No. of rooting shoots ([1]; pMOG1156 (cah-gus-nptII), Cyanamide 20 mg/l during regeneration, 48 inoculated explants, rooting medium 50 mg/l cyanamide): 6
- No. of excised shoots [1, 7]: 50
- No. of gus + shoots [1, 7]: 12
- No. of rooting shoots ([1]; pMOG1156 (cah-gus-nptII), Cyanamide 30 mg/l during regeneration, 48 inoculated explants, rooting medium 50 mg/l cyanamide): 12
- No. of excised shoots [1, 8]: 15
- No. of gus + shoots [1, 8]: 2
- No. of rooting shoots ([1]; pMOG1156 (cah-gus-nptII), Cyanamide 40 mg/l during regeneration, 48 inoculated explants, rooting medium 50 mg/l cyanamide): 2
- No. of excised shoots [2, 9]: 0
- No. of gus + shoots [2, 9]: 0
- No. of rooting shoots ([2]; pMOG410 (gus-nptII), Cyanamide 20 mg/l during regeneration, 30 inoculated explants, rooting medium 50 mg/l cyanamide): 0
- No. of excised shoots [2, 10]: 3
- No. of gus + shoots [2, 10]: 0
- No. of rooting shoots ([2]; pMOG410 (gus-nptII), Cyanamide 30 mg/l during regeneration, 30 inoculated explants, rooting medium 50 mg/l cyanamide): 0
- No. of excised shoots [2, 11]: 0
- No. of gus + shoots [2, 11]: 0
- No. of rooting shoots ([2]; pMOG410 (gus-nptII), Cyanamide 40 mg/l during regeneration, 30 inoculated explants, rooting medium 50 mg/l cyanamide): 0
- No. of excised shoots ([2]; pMOG874 (cah-nptII), Cyanamide 20 mg/l during regeneration, 35 inoculated explants): 2
- No. of rooting shoots ([2]; pMOG874 (cah-nptII), Cyanamide 20 mg/l during regeneration, 35 inoculated explants, rooting medium 50 mg/l cyanamide): 0
- No. of excised shoots ([2]; pMOG874 (cah-nptII), Cyanamide 30 mg/l during regeneration, 35 inoculated explants): 0
- No. of rooting shoots ([2]; pMOG874 (cah-nptII), Cyanamide 30 mg/l during regeneration, 35 inoculated explants, rooting medium 50 mg/l cyanamide): 0
- No. of excised shoots ([2]; pMOG874 (cah-nptII), Cyanamide 40 mg/l during regeneration, 35 inoculated explants): 1
- No. of rooting shoots ([2]; pMOG874 (cah-nptII), Cyanamide 40 mg/l during regeneration, 35 inoculated explants, rooting medium 50 mg/l cyanamide): 1
- No. of excised shoots [2, 12]: 0
- No. of gus + shoots [2, 12]: 0
- No. of rooting shoots ([2]; pMOG1156 (gus-nptII-cah), Cyanamide 20 mg/l during regeneration, 30 inoculated explants, rooting medium 50 mg/l cyanamide): 0
- No. of excised shoots [2, 13]: 5
- No. of gus + shoots [2, 13]: 0
- No. of rooting shoots ([2]; pMOG1156 (gus-nptII-cah), Cyanamide 30 mg/l during regeneration, 30 inoculated explants, rooting medium 50 mg/l cyanamide): 0
- No. of excised shoots [2, 14]: 5
- No. of gus + shoots [2, 14]: 3
- No. of rooting shoots ([2]; pMOG1156 (gus-nptII-cah), Cyanamide 40 mg/l during regeneration, 30 inoculated explants, rooting medium 50 mg/l cyanamide): 3

SMILES: NC[C@H]1O[C@H](O[C@H]2[C@H](O)[C@@H](O[C@H]3O[C@H](CO)[C@@H](O)[C@H](N)[C@H]3O)[C@H](N)C[C@@H]2N)[C@H](O)[C@@H](O)[C@@H]1O [Kanamycin]
- No. of excised shoots [1, 15]: 24
- No. of gus + shoots [1, 15]: 12
- No. of rooting shoots ([1]; pMOG410 (gus-nptII), Kanamycin 50 mg/l during regeneration, 58 inoculated explants, rooting medium 30 mg/l kanamycin): 13
- No. of excised shoots ([1]; pMOG874 (cah-nptII), Kanamycin 50 mg/l during regeneration, 58 inoculated explants): 34
- No. of rooting shoots ([1]; pMOG874 (cah-nptII), Kanamycin 50 mg/l during regeneration, 58 inoculated explants, rooting medium 30 mg/l kanamycin): 26
- No. of excised shoots [1, 16]: 26
- No. of gus + shoots [1, 16]: 16
- No. of rooting shoots ([1]; pMOG1156 (cah-gus-nptII), Kanamycin 50 mg/l during regeneration, 48 inoculated explants, rooting medium 30 mg/l kanamycin): 16
- No. of excised shoots [2, 17]: 4
- No. of gus + shoots [2, 17]: 3
- No. of rooting shoots ([2]; pMOG410 (gus-nptII), Kanamycin 100 mg/l during regeneration, 30 inoculated explants, rooting medium 30 mg/l kanamycin): 3
- No. of excised shoots ([2]; pMOG874 (cah-nptII), Kanamycin 100 mg/l during regeneration, 35 inoculated explants): 4
- No. of rooting shoots ([2]; pMOG874 (cah-nptII), Kanamycin 100 mg/l during regeneration, 35 inoculated explants, rooting medium 30 mg/l kanamycin): 1
- No. of excised shoots [2, 18]: 5
- No. of gus + shoots [2, 18]: 4
- No. of rooting shoots ([2]; pMOG1156 (gus-nptII-cah), Kanamycin 100 mg/l during regeneration, 30 inoculated explants, rooting medium 30 mg/l kanamycin): 3
